Experimental data reported in patent publication US10099993B2, “Metabotropic glutamate receptor positive allosteric modulators (PAMS) and uses thereof” (Sanford-Burnham Medical Research Institute, priority 2014, dated 2018).
Entries after “also recorded” stand apart in the source; their conditions may differ. Where two headings read alike, the source gives them in different places.

What was measured:
mGlu3 [1] = target: T1, mGlu3 (Rattus norvegicus (Rat), UniProt P31422); experiment: TREx293 mGlu3 Gα15 calcium assay; type: cell-based; settings: presence of an EC20 of glutamate, 20 ng/mL Tet for 20 h
T1 sequence (P31422 23-879): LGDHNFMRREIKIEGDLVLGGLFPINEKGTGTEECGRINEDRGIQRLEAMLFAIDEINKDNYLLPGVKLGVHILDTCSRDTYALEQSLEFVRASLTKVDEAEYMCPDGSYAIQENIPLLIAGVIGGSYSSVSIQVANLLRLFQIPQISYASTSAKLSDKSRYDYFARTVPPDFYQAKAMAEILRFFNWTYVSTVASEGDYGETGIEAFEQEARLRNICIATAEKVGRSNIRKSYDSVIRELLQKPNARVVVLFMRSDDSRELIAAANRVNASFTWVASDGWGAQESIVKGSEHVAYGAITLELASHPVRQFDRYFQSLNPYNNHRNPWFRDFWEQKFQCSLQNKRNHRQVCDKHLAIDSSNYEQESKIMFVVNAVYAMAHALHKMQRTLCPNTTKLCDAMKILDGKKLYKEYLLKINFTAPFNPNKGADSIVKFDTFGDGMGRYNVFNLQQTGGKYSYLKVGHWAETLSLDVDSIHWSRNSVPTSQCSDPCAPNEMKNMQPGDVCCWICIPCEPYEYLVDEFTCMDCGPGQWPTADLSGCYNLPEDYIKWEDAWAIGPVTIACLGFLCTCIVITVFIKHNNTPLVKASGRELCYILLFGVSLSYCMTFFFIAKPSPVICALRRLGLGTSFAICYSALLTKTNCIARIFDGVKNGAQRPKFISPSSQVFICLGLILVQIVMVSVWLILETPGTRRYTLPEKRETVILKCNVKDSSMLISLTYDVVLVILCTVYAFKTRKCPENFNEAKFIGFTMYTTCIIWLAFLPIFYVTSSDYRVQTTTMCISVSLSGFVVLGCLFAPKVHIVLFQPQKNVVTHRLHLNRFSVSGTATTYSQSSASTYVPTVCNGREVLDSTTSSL
Experimental: In order to generate a tetracycline (Tet)-inducible rat mGlu3 stable cell line to be used for a calcium mobilization assay, TREx293 cells (Invitrogen) were transfected with mouse Gα15-pCMV6 plasmid (Origene) using Fugene6 (Promega). The cells were selected for Gα15 expression with 1 mg/mL G418 in the presence of 10 μg/ml blasticidin to maintain Tet Repressor expression. Two weeks after the selection, polyclonal TREx293 Gα15 cells were obtained. The entire coding sequence of rat mGlu3 was amplified by polymerase chain reaction (PCR) and cloned into the Tet-inducible expression plasmid pcDNA5/TO (Invitrogen). Rat mGlu3-pcDNA5/TO was transfected into TREx293 Gα15 cells and selected for mGlu3 expression with 200 μg/ml hygromycin in the presence of G418 and blasticidin.
For mGlu3 the TREx tetracycline-inducible system (Invitrogen) was utilized. […] In the absence of Tet, no measurable expression of mGlu3 is detected either by Western blot (FIG. 3A) or by functional response to calcium mobilization (FIG. 3B). […] Data were analyzed using nonlinear regression. Data were obtained from three separate experiments performed in triplicate, normalized to the response to 100 μM glutamate in each experiment, and are expressed as the mean±SEM.

[2] = tested on: cocaine-maintained responding in rats; settings: previously shown (Jin, X. et al. 2010); cited from earlier work
[3] = tested on: food-maintained responding in rats; settings: previously shown (Jin, X. et al. 2010); cited from earlier work
mGlu1 = mGlu1 (Rattus norvegicus (Rat), UniProt P23385); experiment: mGlu1 calcium assay; type: cell-based; settings: full agonist concentration-response ± 10 μM compound
Sequence of mGlu1 (P23385 19-1199): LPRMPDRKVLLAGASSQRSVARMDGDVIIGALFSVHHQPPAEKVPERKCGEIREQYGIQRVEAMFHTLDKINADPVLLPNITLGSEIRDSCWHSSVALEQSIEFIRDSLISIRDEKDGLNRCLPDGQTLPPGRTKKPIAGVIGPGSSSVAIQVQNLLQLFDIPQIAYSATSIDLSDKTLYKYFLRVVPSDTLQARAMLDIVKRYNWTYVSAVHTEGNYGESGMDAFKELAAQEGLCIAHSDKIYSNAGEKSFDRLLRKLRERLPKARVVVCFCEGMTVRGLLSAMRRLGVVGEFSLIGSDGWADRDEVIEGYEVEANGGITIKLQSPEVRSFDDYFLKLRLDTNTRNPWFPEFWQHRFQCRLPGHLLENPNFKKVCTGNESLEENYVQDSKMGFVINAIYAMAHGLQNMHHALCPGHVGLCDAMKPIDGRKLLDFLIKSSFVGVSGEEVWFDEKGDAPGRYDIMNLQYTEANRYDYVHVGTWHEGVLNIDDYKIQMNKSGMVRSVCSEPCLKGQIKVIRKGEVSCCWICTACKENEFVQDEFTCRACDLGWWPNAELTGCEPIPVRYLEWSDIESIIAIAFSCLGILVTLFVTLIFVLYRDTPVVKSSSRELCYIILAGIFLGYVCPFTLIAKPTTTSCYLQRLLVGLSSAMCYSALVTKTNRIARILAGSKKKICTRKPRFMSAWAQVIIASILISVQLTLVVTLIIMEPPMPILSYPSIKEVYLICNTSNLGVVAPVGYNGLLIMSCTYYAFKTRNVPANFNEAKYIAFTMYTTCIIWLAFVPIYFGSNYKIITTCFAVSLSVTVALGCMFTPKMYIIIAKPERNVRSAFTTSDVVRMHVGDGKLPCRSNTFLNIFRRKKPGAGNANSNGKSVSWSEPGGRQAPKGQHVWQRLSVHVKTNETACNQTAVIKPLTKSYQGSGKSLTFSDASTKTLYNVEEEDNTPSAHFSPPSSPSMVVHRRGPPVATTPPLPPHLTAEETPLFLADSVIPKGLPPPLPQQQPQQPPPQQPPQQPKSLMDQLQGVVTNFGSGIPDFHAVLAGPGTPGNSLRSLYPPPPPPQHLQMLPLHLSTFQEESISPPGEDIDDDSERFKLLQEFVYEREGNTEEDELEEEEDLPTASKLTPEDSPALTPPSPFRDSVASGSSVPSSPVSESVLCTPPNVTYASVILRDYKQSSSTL

mGlu4 = mGlu4 (Rattus norvegicus (Rat), UniProt P31423); experiment: mGlu4 GIRK thallium flux assay; type: cell-based; settings: full agonist concentration-response ± 10 μM compound
Sequence of mGlu4 (P31423 33-912): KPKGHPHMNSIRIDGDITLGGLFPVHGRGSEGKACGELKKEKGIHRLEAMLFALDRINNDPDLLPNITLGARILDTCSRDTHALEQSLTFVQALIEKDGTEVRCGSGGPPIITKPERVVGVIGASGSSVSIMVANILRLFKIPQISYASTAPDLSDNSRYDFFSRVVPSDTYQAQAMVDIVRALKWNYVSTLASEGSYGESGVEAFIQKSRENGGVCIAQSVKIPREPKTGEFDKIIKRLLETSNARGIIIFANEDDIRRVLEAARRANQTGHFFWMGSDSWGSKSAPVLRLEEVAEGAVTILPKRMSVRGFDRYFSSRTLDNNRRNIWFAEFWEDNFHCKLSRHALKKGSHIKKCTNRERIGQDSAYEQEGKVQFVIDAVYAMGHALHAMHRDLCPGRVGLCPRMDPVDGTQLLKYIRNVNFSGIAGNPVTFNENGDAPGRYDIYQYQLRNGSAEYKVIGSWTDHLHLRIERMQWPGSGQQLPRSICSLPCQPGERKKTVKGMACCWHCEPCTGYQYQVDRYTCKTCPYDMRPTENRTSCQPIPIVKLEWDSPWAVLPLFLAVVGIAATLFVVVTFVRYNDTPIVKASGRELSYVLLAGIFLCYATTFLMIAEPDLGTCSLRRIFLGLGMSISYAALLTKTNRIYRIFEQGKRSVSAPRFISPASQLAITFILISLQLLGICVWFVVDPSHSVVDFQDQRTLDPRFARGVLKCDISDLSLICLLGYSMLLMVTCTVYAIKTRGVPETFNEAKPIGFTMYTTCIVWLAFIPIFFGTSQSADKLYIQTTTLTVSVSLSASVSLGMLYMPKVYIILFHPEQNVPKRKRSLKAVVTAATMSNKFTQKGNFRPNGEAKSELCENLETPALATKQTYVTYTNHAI

mGlu5 = mGlu5 (Rattus norvegicus (Rat), UniProt P31424); experiment: mGlu5 calcium assay; type: cell-based; settings: full agonist concentration-response ± 10 μM compound
mGlu6 = mGlu6 (Rattus norvegicus (Rat), UniProt P35349); experiment: mGlu6 GIRK thallium flux assay; type: cell-based; settings: full agonist concentration-response ± 10 μM compound
mGlu7 = mGlu7 (Rattus norvegicus (Rat), UniProt P35400); experiment: mGlu7 GIRK thallium flux assay; type: cell-based; settings: full L-AP4 concentration-response ± 10 μM compound
mGlu8 = mGlu8 (Rattus norvegicus (Rat), UniProt P70579); experiment: mGlu8 GIRK thallium flux assay; type: cell-based; settings: full agonist concentration-response ± 10 μM compound
Sequence of mGlu8 (P70579 34-908): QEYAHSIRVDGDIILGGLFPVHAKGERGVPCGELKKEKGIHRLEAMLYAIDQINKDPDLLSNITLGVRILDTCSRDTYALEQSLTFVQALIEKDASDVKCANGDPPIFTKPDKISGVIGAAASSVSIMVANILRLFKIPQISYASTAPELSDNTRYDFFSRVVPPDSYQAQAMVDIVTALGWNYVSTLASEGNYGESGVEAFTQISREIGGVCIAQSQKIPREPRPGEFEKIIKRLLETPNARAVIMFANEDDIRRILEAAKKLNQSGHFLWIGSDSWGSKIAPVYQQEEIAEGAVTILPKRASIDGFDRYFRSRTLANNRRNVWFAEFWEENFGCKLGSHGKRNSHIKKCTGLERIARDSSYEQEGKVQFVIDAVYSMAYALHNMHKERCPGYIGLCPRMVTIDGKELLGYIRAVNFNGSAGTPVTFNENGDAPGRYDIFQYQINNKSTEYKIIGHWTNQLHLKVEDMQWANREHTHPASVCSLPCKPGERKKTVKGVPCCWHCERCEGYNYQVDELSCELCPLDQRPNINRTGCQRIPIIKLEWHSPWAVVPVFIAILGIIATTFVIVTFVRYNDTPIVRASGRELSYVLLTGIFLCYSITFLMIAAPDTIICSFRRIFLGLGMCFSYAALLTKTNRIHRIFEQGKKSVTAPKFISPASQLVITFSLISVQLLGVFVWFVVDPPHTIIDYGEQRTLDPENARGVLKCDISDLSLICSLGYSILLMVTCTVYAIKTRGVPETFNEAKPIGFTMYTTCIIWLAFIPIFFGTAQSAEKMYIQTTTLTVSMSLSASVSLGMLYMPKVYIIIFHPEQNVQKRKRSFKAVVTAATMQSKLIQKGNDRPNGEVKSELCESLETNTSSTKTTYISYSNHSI

mGlu2 [4] = target: T2, mGlu2 (Rattus norvegicus (Rat), UniProt P31421); experiment: HEK293A mGlu2 Gα15 calcium assay; type: cell-based; settings: presence of an EC20 of glutamate
T2 sequence (P31421 19-872): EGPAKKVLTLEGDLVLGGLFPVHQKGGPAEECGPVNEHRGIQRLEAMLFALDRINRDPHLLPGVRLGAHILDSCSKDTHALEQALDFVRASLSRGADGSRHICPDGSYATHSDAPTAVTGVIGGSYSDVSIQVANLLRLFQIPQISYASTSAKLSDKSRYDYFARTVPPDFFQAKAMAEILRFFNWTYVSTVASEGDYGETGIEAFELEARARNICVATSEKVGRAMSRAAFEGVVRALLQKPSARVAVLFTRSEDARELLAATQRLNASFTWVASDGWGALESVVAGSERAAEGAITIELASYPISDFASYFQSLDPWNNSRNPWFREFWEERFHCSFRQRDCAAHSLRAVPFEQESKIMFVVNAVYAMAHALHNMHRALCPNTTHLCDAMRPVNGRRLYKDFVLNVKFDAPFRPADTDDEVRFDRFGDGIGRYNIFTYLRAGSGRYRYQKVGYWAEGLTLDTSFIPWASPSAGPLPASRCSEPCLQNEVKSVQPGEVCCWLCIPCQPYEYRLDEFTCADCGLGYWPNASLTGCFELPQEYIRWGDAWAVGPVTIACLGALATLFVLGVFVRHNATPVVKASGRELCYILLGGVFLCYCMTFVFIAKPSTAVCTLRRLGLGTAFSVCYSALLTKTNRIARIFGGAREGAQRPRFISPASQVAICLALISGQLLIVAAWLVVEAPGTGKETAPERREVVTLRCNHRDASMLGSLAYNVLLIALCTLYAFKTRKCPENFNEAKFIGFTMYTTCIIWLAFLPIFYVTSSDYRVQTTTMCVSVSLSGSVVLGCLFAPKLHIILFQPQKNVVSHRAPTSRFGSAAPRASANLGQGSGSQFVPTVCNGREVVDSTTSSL

[5] = In vivo PK in rats, p.o. administration; parameters: species or system rat; settings: 20 mg/kg; for Plasma: harvested at or near the Tmax; for Kp / Tmax / Cmax: rat, po; for Kp: brain and plasma, read-out: Brain:Plasma ratio; for Tmax / Cmax: plasma
[6] = In vivo PK in rats, i.v. administration; parameters: species or system rat; settings: 2 mg/kg; for Cmax / Vd: rat, iv, plasma; for Vd: read-out: Vdss
mGlu2 [7] = target: T2, mGlu2; experiment: mGlu2 GIRK thallium flux assay;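 also: Cell-based assay, rate of fluorescence rise right after thallium plus agonist addition read on a kinetic imaging plate reader, normalized to vehicle and maximal agonist control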
mGlu3 [8] = target: T1, mGlu3; experiment: mGlu3 GIRK thallium flux assay; settings: for General activity at mGlu3: full agonist concentration-response ± 10 μM compound;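 as to all read-outs here: kinetic fluorescence slope read shortly after thallium plus agonist addition, scaled between vehicle and maximal agonist control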
[9] = In vivo PK in rats, i.p. administration; settings: 10 mg/kg; for Kp at 30 min: rat, brain and plasma, ip
R6/2 mice = settings: cited from earlier work
[10] = tested on: cultured spinal cord astrocytes; settings: wild-type and mGlu2 knockout mice, not mGlu3 knockout; cited from earlier work
SMI-32+ motor neurons = settings: mixed cultures of spinal cord cells; cited from earlier work
spinal cord GDNF levels = settings: 0.5, 1 or 5 mg/kg i.p., wild-type and mGlu2 knockout mice; cited from earlier work
SOD1G93A mice = settings: continuous treatment 1 or 5 mg/kg/day; cited from earlier work
reserpine-treated rat = settings: cited from earlier work
[11] = tested on: 6-OHDA lesioned nigrostriatal tract; settings: cited from earlier work
[12] = tested on: GDNF mRNA and protein levels; settings: 0.25-3 mg/kg, i.p.; cited from earlier work
[13] = tested on: nigrostriatal damage induced by 1-methyl-4-phenyl-1,2,3,6-tetrahydropyridine; settings: acute or repeated injections 0.25 or 3 mg/kg, i.p., mice; cited from earlier work
[14] = tested on: cocaine-maintained responding in rats; experiment: Cocaine self-administration experiment; type: in vivo, rat
Experimental: (§1) Subjects. Male Wistar rats (Charles River Laboratories, Raleigh, N.C.) weighing 300-350 g at the beginning of each experiment were housed in pairs in standard rat Plexiglas cages with food and water available ad libitum, except during food training and the food self-administration experiment (see below). Rats were maintained in a climate-controlled room at 21° C. on a 12 h reverse light/dark cycle and all experiments were conducted during the dark (i.e., active) phase (7:00 h-19:00 h) of the cycle under dim red lighting. All procedures were conducted in accordance with the guidelines from the National Institutes of Health and the Association for the Assessment and Accreditation of Laboratory Animal Care and were approved by the Institutional Animal Care and Use Committee.
Drugs. Cocaine hydrochloride (National Institute on Drug Abuse, Bethesda, Md.) was dissolved in sterile physiological saline and filtered through a 0.22 μm syringe filter (Fisher Scientific, Pittsburgh, Pa.) for sterilization purposes.
Food Training. […]
(§2) Statistical Analyses. […] Significant effects were further analyzed with Tukey post hoc tests. […]

[15] = tested on: food-maintained responding in rats; experiment: Food self-administration experiment; type: in vivo, rat; settings: rats, 0, 10, 20, 40 mg/kg i.p., 60 min pretreatment
Experimental: as §1
Food Training. Details regarding the experimental procedures have been described previously.^37 All rats were placed under food restriction (20 g food/day) and trained during daily 1 hr sessions to lever press for 45 mg food pellets (Research Diets, New Brunswick, N.J.) under a fixed ratio 1 reinforcement schedule with a 1 s time-out period (FR1 TO1s). Successful responses were followed by illumination of a cue light for the duration of the time-out period, when lever presses had no consequence. […]
as §2

[16] = compound concentration-response in presence and absence of EC20 glutamate

| SMILES | activity in TREx293 mGlu3 Gα15 calcium assay (mGlu3 [1]) | cocaine-maintained responding [2] | food-maintained responding [3] | General activity at mGlu1 (mGlu1) | General activity at mGlu4 (mGlu4) | General activity at mGlu5 (mGlu5) | General activity at mGlu6 (mGlu6) | General activity at mGlu7 (mGlu7) | General activity at mGlu8 (mGlu8) | AUC(0→t) [5] | F, oral bioavailability [5] | Plasma [5] | Kp [5] | Tmax [5] | Cmax [5] | AUC(0→t) [6] | Cmax [6] | Vd [6] | General activity at mGlu3 (mGlu3 [8]) | Kp at 30 min [9] | also measured |
| --- | --- | --- | --- | --- | --- | --- | --- | --- | --- | --- | --- | --- | --- | --- | --- | --- | --- | --- | --- | --- | --- |
| Cc1c(OCc2cccc(-c3ccc(C(=O)O)cc3)c2)cc2c(c1C)C(=O)C(C1CCCC1)C2 (centres unmarked) [BINA] | inactive | decreased only cocaine-maintained responding | no effect on food-maintained responding |  |  |  |  |  |  |  |  |  |  |  |  |  |  |  |  |  |  |
| COc1cc(C(=O)O)ccc1OCCCCOc1ccc(C(=O)CC(C)C)c(O)c1C [Compound 44, 4-{4-[3-Hydroxy-2-methyl-4-(3-methylbutanoyl)phenoxy]butoxy}-3-methoxybenzoic acid] | demonstrates mGlu3 PAM activity |  |  | inactive^b | inactive^b | inactive^b | inactive^b | inactive^b | inactive^b | 1274.6 ± 246.3 (μmol/L) min | 41.9% | 16.38 ± 1.1 µM | 0.05 ± 0.01 | 1.5 h | 2.75 ± 0.47 µM | 304.6 ± 25.8 (μmol/L)*min | 6.43 ± 0.39 µM | 0.55 ± 0.04 L/kg | PAM | 0.03 ± 0.01 | activity in HEK293A mGlu2 Gα15 calcium assay (mGlu2 [4]): behaves as a PAM; also recorded: PAM activity; intrinsic agonist activity towards mGlu2 (Agonist Mode) (mGlu2 [7]; absence of an EC20 concentration of agonist): intrinsic agonist activity; activity toward mGlu2 in GIRK thallium-flux assay (mGlu2 [7]; [16]): Ago-PAM activity; General activity at mGlu2 (mGlu2 [7]; full agonist concentration-response ± 10 μM compound): Ago-PAM; Emin, minimal response of the concentration-response of agonist (mGlu2 [7]; mGlu2, 10 μM compound): Emin = 90%; activity toward mGlu3 in GIRK thallium-flux assay (mGlu3 [8]; [16]): PAM activity; Emin, minimal response of the concentration-response of agonist (mGlu3 [8]; mGlu3, 10 μM compound): Emin = 4%; Brain, maximum concentration ([9]; rats, i.p., Tmax […] min): 0.23 ± 0.10 µM; Plasma, maximum concentration ([9]; rats, i.p., Tmax […] min): 10.57 ± 2.52 µM |
| Cc1c(OCCCCOc2ccc(C(=O)O)cc2)ccc(C(=O)CC(C)C)c1O [Compound 20, 4-(4-(3-Hydroxy-2-methyl-4-(3-methylbutanoyl)phenoxy)butoxy)benzoic acid] |  |  |  | inactive^b | inactive^b | inactive^b | inactive^b | inactive^b | inactive^b | 544.8 ± 75.4 (μmol/L) min | 23.5% | 5.29 ± 1.98 µM | 0.2 ± 0.03 | 2.25 h | 2.57 ± 0.45 µM | 231.7 ± 42.12 (μmol/L)*min | 5 ± 0.6 µM | 0.81 ± 0.14 L/kg | PAM |  |  |
| N[C@@]1(C(=O)O)CO[C@H]2[C@H](C(=O)O)[C@H]21 [LY379268] |  | decrease both cocaine- and food-maintained responding | decrease both cocaine- and food-maintained responding |  |  |  |  |  |  |  |  |  |  |  |  |  |  |  |  |  | striatal neuron loss (R6/2 mice; R6/2 mice, 20 mg/kg s.c. daily, at 10 weeks): rescue of a 15-20% striatal neuron loss; phenotype in R6/2 mice (R6/2 mice; daily s.c. MTD 20 mg/kg beginning at 4 weeks): dramatically improves the phenotype; GDNF levels in cultured spinal cord astrocytes [10]: enhanced GDNF levels; protection of SMI-32+ motor neurons against excitotoxic death (SMI-32+ motor neurons): protected; spinal cord GDNF levels (spinal cord GDNF levels): enhanced spinal cord GDNF levels; neurological disability in SOD1G93A mice (SOD1G93A mice): beneficial effect on neurological disability; locomotor activity in reserpine-treated rat (reserpine-treated rat; intracerebroventricular 1, 5, 10, 20 nmol/2 μl): dose-dependent increase in locomotor activity; reserpine-induced akinesia (reserpine-treated rat; systemic 0.1, 1, 10 mg/kg ip): did not reverse reserpine-induced akinesia; protection against nigral infusion of 6-OHDA ([11]; 10 mg/kg/day ip for 7 days): provided some protection against nigral infusion of 6-OHDA; protection against striatal infusion of 6-OHDA ([11]; 10 mg/kg/day ip for 21 days): significant protection in the striatum; rotational behaviour 1 month after unilateral 6-OHDA lesioning ([11]; systemic 0.1, 1, 10 mg/kg ip): failed to effect rotational behaviour; GDNF mRNA and protein levels in the mouse brain [12]: increased; protection against MPTP-induced nigrostriatal damage [13]: highly protective against nigrostriatal damage |
| Cc1c(OCCCCOc2ccc(C(=O)CC(C)(C)C)c(O)c2C)cccc1C(=O)O [compound 74, 3-(4-(4-(3,3-Dimethylbutanoyl)-3-hydroxy-2-methylphenoxy)butoxy)-2-methylbenzoic acid] |  |  |  |  |  |  |  |  |  |  |  |  |  |  |  |  |  |  |  | 0.03 ± 0.01 | cocaine-maintained responding ([14]; rats, 0, 10, 20, 40 mg/kg i.p., 60 min pretreatment): dose-dependently decreased; also recorded: decreasing cocaine-maintained responding; cocaine-maintained responding compared with food-maintained responding ([14]; rats, highest dose tested 40 mg/kg i.p., p<0.05): decreased to a greater extent than food-maintained responding; also recorded: cocaine-maintained responding was significantly lower than food-maintained responding; food-maintained responding [15]: dose-dependently decreased |
